Source: paper PMC10569036

How the values were obtained:
[1] = shake flask on a mixture of 185; loss from the water phase only; LC-QTOF peak areas; conditions: room
[2] = shake flask on a mixture of 185; loss from the water phase only; LC-Orbitrap peak areas; conditions: room

log partition 1-octanol / HPLC water, unbuffered, traces of methanol / DMSO [2] [log10] | log partition butyl acetate / HPLC water, unbuffered, traces of methanol / DMSO [2] [log10] | log partition chloroform / HPLC water, unbuffered, traces of methanol / DMSO [2] [log10] | log partition cyclohexane / HPLC water, unbuffered, traces of methanol / DMSO [2] [log10] | log partition dichloromethane / HPLC water, unbuffered, traces of methanol / DMSO [2] [log10] | log partition n-hexane / HPLC water, unbuffered, traces of methanol / DMSO [2] [log10] | log partition n-octane / HPLC water, unbuffered, traces of methanol / DMSO [2] [log10] | log partition n-undecane / HPLC water, unbuffered, traces of methanol / DMSO [2] [log10] | log partition oleylalcohol / HPLC water, unbuffered, traces of methanol / DMSO [2] [log10] | log partition toluene / HPLC water, unbuffered, traces of methanol / DMSO [2] [log10] | SMILES | log partition 1-octanol / HPLC water, unbuffered, traces of methanol / DMSO [1] [log10] | log partition butyl acetate / HPLC water, unbuffered, traces of methanol / DMSO [1] [log10] | log partition chloroform / HPLC water, unbuffered, traces of methanol / DMSO [1] [log10] | log partition cyclohexane / HPLC water, unbuffered, traces of methanol / DMSO [1] [log10] | log partition dichloromethane / HPLC water, unbuffered, traces of methanol / DMSO [1] [log10] | log partition n-hexane / HPLC water, unbuffered, traces of methanol / DMSO [1] [log10] | log partition n-octane / HPLC water, unbuffered, traces of methanol / DMSO [1] [log10] | log partition n-undecane / HPLC water, unbuffered, traces of methanol / DMSO [1] [log10] | log partition oleylalcohol / HPLC water, unbuffered, traces of methanol / DMSO [1] [log10] | log partition toluene / HPLC water, unbuffered, traces of methanol / DMSO [1] [log10]
3.752 | 4.674 | 1.201 | 2.491 | 2.846 | 1.664 | 1.841 | 2.234 | 3.336 | 3.533 | O=C(Nc1ccccc1-c1ccc(Cl)cc1)c1cccnc1Cl | 2.544 | 2.85 | 2.789 | 1.857 | 2.321 | 1.024 | 1.335 | 1.129 | 1.78 | 2.524
2.462 | 2.969 | 1.414 | – | 3 | – | – | – | 2.211 | 2.779 | C#CC(C)(C)NC(=O)c1cc(Cl)cc(Cl)c1 | 2.331 | 2.368 | 2.908 | – | 2.85 | – | – | – | 2.008 | 2.121
3.061 | 2.459 | 1.134 | 1.413 | 1.68 | 1.053 | 1.336 | 1.233 | 1.908 | 1.832 | CO/N=C(/C1=NOCCO1)c1ccccc1Oc1ncnc(Oc2ccccc2Cl)c1F | 2.317 | 2.442 | 2.253 | 1.674 | 2.488 | 1.734 | 1.431 | 1.557 | 2.253 | 2.389
